Experimental data from patent publication US20260241049A1, “Radiopharmaceutical Compositions Targeting Glypican-3 and Uses Thereof” (RayzeBio, Inc., priority 2023, published 2026).
Each block holds one molecule with its values, some of them ahead of it. Starred links: 1 amine or outer side, 2 acyl side, 3 side chain; linkers in the order of their positions; H or OH if unused. Positions of bridges follow the written chain, without caps; N, C: chain ends. Non-standard residues stand in square brackets, D forms with d. Residues, ends and D or L forms follow the SMILES beside them. Primed or numbered codes have the meaning given here. MeHseMe″ = (2S)-4-methoxy-2-(methylamino)butanoic acid (N-methyl-O-methyl-L-homoserine), COCC[C@@H](C(=O)[*:2])N(C)[*:1]; Phe(4-(1-Me-pyrazol-4-yl)) = Cn1cc(-c2ccc(C[C@H](N)C(=O)O)cc2)cn1; NMeAla(isoquinolin-7-yl) = CN[C@@H](Cc1ccc2ccncc2c1)C(=O)O; 3Pal(6-Ph) = N[C@@H](Cc1ccc(-c2ccccc2)nc1)C(=O)O; Phe(4-COOH) = N[C@@H](Cc1ccc(C(=O)O)cc1)C(=O)O; NMe2Nal = CN[C@@H](Cc1ccc2ccccc2c1)C(=O)O; NMeI = CC[C@H](C)[C@H](NC)C(=O)O; NMeQ = CN[C@@H](CCC(N)=O)C(=O)O; NMehSer = CN[C@@H](CCO)C(=O)O; NMeK = CN[C@@H](CCCCN)C(=O)O; NMeC = CN[C@@H](CS)C(=O)O

How the values were obtained:
[1] = biological target: T1, human Glypican3 (Homo sapiens, UniProt P51654); experiment: SPR binding to Glypican-3, Method B-1 (Glypican3 immobilized on CM3 chip, Biacore T200); details: SPR method B-1
T1 construct: purchased R&D systems 2119-GP
Procedure: A CM3 sensor chip (Cytiva) was inserted into a Biacore T200 (Cytiva), primed three times with a running buffer: HBS-P+, pH 7.4 (Cytiva), and equilibrated at a flow rate of 30 μL/min. Ligand immobilization was performed at a flow rate of 10 μL/min. 50 μL each of 60 mM EDC solution (Cytiva) and 650 mM NHS solution (Cytiva) were mixed, and then reacted at a flow rate of 10 μL/min for 420 seconds, 150 μL of 0.2 μM human Glypican3 (R&D systems, catalog number: 2119-GP) solution which was prepared by diluting with 10 mM acetic acid solution (pH 5.0), was reacted at a flow rate of 10 μL/min for 420 seconds, and Glypican3 was immobilized on the CM3 sensor chip. After immobilization, 1.0 M ethanolamine aqueous solution (Cytiva) was allowed to react for 420 seconds at a flow rate of 10 μL/min for capping. A peptide lysate prepared to 10 mM in DMSO solution was diluted with running buffer to a final concentration of 10 μM peptide lysate. After that, 5 serial dilution series (100 nM, 50 nM, 25 nM, 10 nM, 5 nM) of peptide solutions were prepared. Using the above samples, peptide kinetics for Glypican3 was obtained by SPR measurement. Kinetics evaluation of Glypican3 was performed by SPR measurements at a flow rate of 10 μL/min, setting the association time to 120 seconds and the disassociation time to 600 seconds.
(§1) The obtained data by Method B-1, Method B-2, Method B-3 and Method B-4 were analyzed by follow. Single Cycle Kinetics was used as the kinetics evaluation model, and curve fitting was performed using Biacore T200 Evaluation Software Version 3.0 (Cytiva). The obtained sensorgram was subjected to curve fitting by the method of least squares and obtained KD values of the macrocyclic peptides in this disclosure for Glypican 3 protein are shown in Table 18.

[2] = tested on: Huh-7 (glypican 3 expressed on the cell surface); experiment: Flow cytometry, biotinylated peptides followed by SAPE, Huh-7; assay type: cell-based, human; details: biotinylated peptide at 100 nM followed by SAPE (1:250), on ice; versus SK-Hep1 negative control; FIG. 2
Procedure: (§2) HepG2 (human hepatocellular carcinoma) and SK-HEP-1 (human hepatic adenocarcinoma) cell lines were purchased from the American Type Culture Collection (ATCC; Manassas, VA). Huh-7 (human hepatoblastoma) cell line was purchased from the Japanese Collection of Research Bioresources Cell Bank (JCRB Cell Bank, Osaka, Japan). HepG2 and SK-HEP-1 were grown in EMEM (FUJIFILM Wako Pure Chemical Corporation, 055-08975) with 10% fetal bovine serum (FBS; Thermo Fisher Scientific, 10270106) and 0.1% gentamicin (NACALAI TESQUE, 11980-14). Huh-7 was grown in DMEM (Thermo Fisher Scientific, 10567014) with 10% FBS and 0.1% gentamicin.
(§3) HepG2, SK-HEP-1 and Huh-7 cells were collected from the culture dish and stained with biotinylated peptides at 100 nM followed by Streptavidin, R-Phycoerythrin Conjugate (SAPE: Thermo Fisher Scientific, S866) (1:250). Cells were washed with phosphate-buffered saline (PBS; FUJIFILM Wako Pure Chemical Corporation, 043-29791) containing 0.5% FBS after addition of peptides or SAPE. All staining procedures were performed on ice. Samples were measured using CytoFLEX S (Beckman Coulter) and CytExpert ver2.4 software. All data were analyzed using FlowJo™ (BD Bioscience). For discrimination of live cells from dead cells, SYTOX™ Blue Dead Cell Stain (Thermo Fisher Scientific, S34857) (1:5000) was added prior to measurement.

[3] = tested on: HepG2 (glypican 3 expressed on the cell surface); experiment: Flow cytometry, biotinylated peptides followed by SAPE, HepG2; assay type: cell-based, human; details: biotinylated peptide at 100 nM followed by SAPE (1:250), on ice; versus SK-Hep1 negative control; FIG. 1
Procedure: as §2, §3

[4] = biological target: Human Glypican3-Fc (Homo sapiens, UniProt P51654); experiment: SPR binding to Glypican-3, Method B-4 (Glypican3-Fc on Protein A chip, peptide 40 nM); details: SPR method B-4, peptide 40 nM
Procedure: A Protein A sensor chip (Cytiva) was inserted into a Biacore T200 (Cytiva), priming was performed three times with a running buffer: HBS-P+, pH 7.4 (Cytiva), and equilibration was carried out at a flow rate of […]. Gly pican3-Fc was allowed to react for 60 seconds at a flow rate of 10 μL/min. After capturing human Glypican3-Fc, a peptide solution prepared to 1 mM in DMSO solution was diluted with a running buffer to a final concentration of 1 μM. After that, the peptide solution was diluted to 40 nM in a similar manner. Using the above samples, peptide kinetics for Glypican3 was obtained by SPR measurement. Kinetics evaluation of Glypican3 was performed by SPR measurements at a flow rate of 30 μL/min. setting the association time to 120 seconds and the disassociation time to 600 seconds.
as §1

[5] = tested on: late-stage liver cancer patients; details: phase II clinical trial, 185 late-stage liver cancer patients; cited from earlier work
[6] = tested on: HCC patient; details: cited from earlier work
[7] = biological target: Human Glypican3-Fc (ACRO Biosystems, GP3-H5258) (human) (UniProt P51654); experiment: SPR (Biacore T200), Method B-3: Glypican3-Fc captured on Protein A chip, peptide as analyte
[8] = biological target: T2, Human Glypican3-Fc (ACRO Biosystems, GP3-H5258) (human, UniProt P51654 25-559); experiment: SPR (Biacore T200), Method B-4: Glypican3-Fc captured on Protein A chip, peptide at 40 nM
T2 construct: Bought fusion protein, captured in Methods B-2, B-3 and B-4; Catalogue number is printed only in Method B-2; not shown: Fc part of the bought fusion
Procedure: Using the above samples, peptide kinetics for Glypican3 was obtained by SPR measurement.
The obtained data by Method B-1, Method B-2, Method B-3 and Method B-4 were analyzed by follow. Single Cycle Kinetics was used as the kinetics evaluation model, and curve fitting was performed using Biacore T200 Evaluation Software Version 3.0 (Cytiva).

Kd [1]: 2500 pM
Molecule: CC[C@H](C)[C@@H]1NC(=O)[C@H](Cc2ccc(C(=O)O)cc2)NC(=O)[C@H](CCC(N)=O)N(C)C(=O)[C@H](CCCCNC(C)=O)NC(=O)[C@H](CCC(N)=O)N(C)C(=O)[C@H](CCC(N)=O)N(C)C(=O)CSC[C@@H](C(N)=O)N(C)C(=O)[C@H](Cc2ccc(-c3cnn(C)c3)cc2)NC(=O)CNC(=O)[C@H](Cc2ccc3ccccc3c2)N(C)C(=O)[C@H](Cc2ccc(C(=O)O)cc2)NC(=O)[C@H]([C@@H](C)CC)NC1=O [Conjugate 2-11] ({CH2CO}-[NMeQ][NMeQ]K(Ac)[NMeQ][Phe(4-COOH)]II[Phe(4-COOH)][NMe2Nal]G[Phe(4-(1-Me-pyrazol-4-yl))][NMeC]-NH2; thioether N-12)

Kd [1]: 500 pM
Molecule: CC[C@H](C)[C@@H]1NC(=O)[C@H](Cc2ccc(C(=O)O)cc2)NC(=O)[C@H](CCC(N)=O)N(C)C(=O)[C@H](CC(=O)O)NC(=O)[C@H]([C@@H](C)CC)N(C)C(=O)[C@H](CCCCNC(C)=O)N(C)C(=O)CSC[C@@H](C(N)=O)N(C)C(=O)[C@H](Cc2ccc(-c3ccccc3)nc2)NC(=O)CNC(=O)[C@H](Cc2ccc3ccccc3c2)N(C)C(=O)[C@H](Cc2ccc(C(=O)O)cc2)NC(=O)[C@H]([C@@H](C)CC)NC1=O [Conjugate 2-1] ({CH2CO}-[NMeK](Ac)[NMeI]D[NMeQ][Phe(4-COOH)]II[Phe(4-COOH)][NMe2Nal]G[3Pal(6-Ph)][NMeC]-NH2; thioether N-12)

Kd [4]: 230 pM
Molecule: CC[C@H](C)[C@@H]1NC(=O)[C@H](Cc2ccc(C(=O)O)cc2)NC(=O)[C@H](CCC(N)=O)N(C)C(=O)[C@H](CC(=O)O)NC(=O)[C@H](CCOC)N(C)C(=O)[C@H](CCCCN)N(C)C(=O)CSC[C@@H](C(N)=O)N(C)C(=O)[C@H](Cc2ccc(-c3ccccc3)nc2)NC(=O)CNC(=O)[C@H](Cc2ccc3ccncc3c2)N(C)C(=O)[C@H](Cc2ccc(O)cc2)NC(=O)[C@H]([C@@H](C)CC)NC1=O [Conjugate 2-61] ({CH2CO}-[NMeK][NMehSer](Me)D[NMeQ][Phe(4-COOH)]IIY[NMeAla(isoquinolin-7-yl)]G[3Pal(6-Ph)][NMeC]-NH2; thioether N-12)

Kd [8]: 230 pM
B3: Macrocyclic peptide of Example 2-61 (SEQ ID No. 72) (peptide)
peptide: {CH2CO}-[NMeK][MeHseMe″]D[NMeQ][Phe(4-COOH)]IIY[NMeAla(isoquinolin-7-yl)]G[3Pal(6-Ph)][NMeC]-NH2
modifications: thioether N-12
SMILES: CC[C@H](C)[C@@H]1NC(=O)[C@H](Cc2ccc(C(=O)O)cc2)NC(=O)[C@H](CCC(N)=O)N(C)C(=O)[C@H](CC(=O)O)NC(=O)[C@H](CCOC)N(C)C(=O)[C@H](CCCCN)N(C)C(=O)CSC[C@@H](C(N)=O)N(C)C(=O)[C@H](Cc2ccc(-c3ccccc3)nc2)NC(=O)CNC(=O)[C@H](Cc2ccc3ccncc3c2)N(C)C(=O)[C@H](Cc2ccc(O)cc2)NC(=O)[C@H]([C@@H](C)CC)NC1=O

Further lines, the molecule ahead of its results:

Molecule: CC[C@H](C)[C@@H]1NC[C@H](Cc2ccc(C(=O)O)cc2)NC(=O)[C@H](CCC(N)=O)N(C)C(=O)[C@H](CC(=O)O)NC(=O)[C@H]([C@@H](C)CC)N(C)C(=O)[C@H](CCCCNC(C)=O)N(C)C(=O)CSC[C@@H](C(=O)NCC(=O)NCCOCCOCCOCCOCCOCCOCCOCCOCCOCCOCCC(=O)N[C@@H](CCCCNC(=O)CCCC[C@@H]2SC[C@@H]3NC(=O)N[C@@H]32)C(N)=O)N(C)C(=O)[C@H](Cc2ccc(-c3ccccc3)nc2)NC(=O)CNC(=O)[C@H](Cc2ccc3ccncc3c2)N(C)C(=O)[C@H](Cc2ccc(O)cc2)NC(=O)[C@H]([C@@H](C)CC)NC1=O [PLB-60]
comparative staining of Huh-7 cells (flow cytometry) [2]: specific binding | comparative staining of HepG2 cells (flow cytometry) [3]: specific binding

Molecule: Codrituzumab
therapeutic efficacy compared with the control group [5]: not impressive | tolerance in phase I clinical trials ([6]; phase I clinical trials): good immune tolerance | anti-tumour effect in HCC patient ([6]; phase I, advanced hepatocellular carcinoma): anti-tumour effect

B1: Macrocyclic peptide of Example 2-33 (SEQ ID No. 50) (peptide)
peptide: XSDXFTIXFGXC
modifications: not fully specified; MeDapCOpipzaa-MeHseMe-D-MeDapCOpipzaa-F4COO-TMe-I-Yae-MeNal2-G-3Py6Ph-MeC-NH2; thioether ring from N-terminal acetyl to MeC12
Kd [7]: 300 pM

B2: Macrocyclic peptide of Example 2-37 (SEQ ID No. 54) (peptide)
peptide: XSDXFTIXFGXC
modifications: not fully specified; MeDapCOpipzaa-MeHseMe-D-MeDapCOpipzaa-F4COO-TMe-I-Yae-MeNal27N-G-3Py6Ph-MeC-NH2; thioether ring from N-terminal acetyl to MeC12
Kd [7]: 1000 pM
